Read-outs that look alike come from different tables or passages of the source.
How the values were obtained:
[1] = test system: lung cancer; assay: Anticancer activity on lung cancer
Description: (§1) The anticancer activity of the crystalline form A of the compound I on B-cell non-Hodgkin lymphoma, lung cancer, gastric cancer, colorectal cancer and leukemia was determined according to the literature method (Wang, Q. et al Biochemical Pharmacology 2011, 81, 848; Asian Pacific Journal of Cancer Prevention 2014, 15, 6829).

[2] = test system: leukemia; assay: Anticancer activity on leukemia
Description: as §1

[3] = test system: B-cell non-Hodgkin's lymphoma; assay: Anticancer activity on B-cell non-Hodgkin's lymphoma
Description: The anticancer (non-Hodgkin's lymphoma) activity of the crystalline form A of the compound I was determined according to the literature method (Asian Pacific Journal of cancer prevention 2014, 15, 6829).
as §1

[4] = Stability evaluation of crystalline forms under high temperature, high humidity and light (XRPD); type: physicochemical; conditions: for Stability of crystalline form under high humidity: 40° C. and 75% humidity for five and ten days; for Stability of crystalline form under high temperature: 60° C. for five days and ten days; for Stability in stability evaluation (overall): high temperature, high humidity and light
Description: The crystalline forms of the compound were systematically screened by means of unitary method, binary method, cooling, dissolution (positive and negative), diffusion and so on, and two crystalline forms were found: crystalline form A and amorphous crystalline form B. The stabilities of the crystalline form A and the crystalline form B under high temperature, high humidity and light were evaluated respectively. […] These experimental conditions were as follows: the high temperature condition is 60° C. for five days and ten days; the high humidity condition is 40° C. and 75% humidity for five and ten days; the light conditions were 4500 lux for five and ten days.

[5] = test system: T-cell lymphoma; assay: Anti-T-cell lymphoma activity in patient-derived tumor xenografts (PDX) mouse model; type: in vivo
Description: The inhibitory effect of the crystalline form A of the compound I on T-cell lymphoma was determined by patient-derived tumor xenograft (PDX).
After the patient's T-cell lymphoid carcinoma tissue was sampled, the tissue was transferred to a specific pathogen free (SPF) animal room through a transfer window. In a super clean table, phosphate buffered saline (PBS) buffer with double antibodies, Dulbecco's modified eagle medium (DMEM) medium, Petri dish and ice bag were prepared. An appropriate amount of PBS and DMEM were poured to the Petri dishes on ice. The tissue was taken out and put into PBS for preliminary cleaning, and necrotic and normal tissue was removed. The tissue in PBS was transferred to DMEM. The remaining tissue was cut into small pieces of 20-30 mm^3 patches, which were transplanted into the armpit and back of mice with puncture needles. Each mouse was inoculated with the tissue on one site. The tumors of the inoculated mice were taken out regularly, photographed, and the volume changes thereof were compared (see FIG. 9).

[6] = Static electricity and mixing uniformity with excipients / content of compound I in tablets; type: physicochemical; conditions: for Drug content for each tablet: 10 tablets arbitrarily selected, average 1 mg compound I and 149 mg excipients per 150 mg tablet; for Static: solid compound I
Description: After 10 days of storage at 40° C./75% humidity, 80-90% of the solid compound I with amorphous form B is gradually transformed into stable crystalline form A. The compound of crystalline form A is a loose solid. Because the dosage of the compound I for adults with AIDS is only 1-3 mg per day, which is a low amount, the uniform mixing of the compound with an excipient is crucial to ensure the anti HIV effect of the drug.

[7] = listed as sheet amorphous solid B

| Stability in stability evaluation (overall) [4] | Mixing with excipients [6] | Drug content for each tablet [6] | Static [6] | Static ([6]; listed as Crystalline form) | Portion of solid transformed into stable crystalline form A ([4]; after 10 days of storage at 40° C./75% humidity) | Drug content for each tablet ([6]; listed as Amorphous B) | Mixing with excipients [6, 7] | Static ([6]; listed as Amorphous B) | Static [6, 7] | SMILES | Inhibitory effect on lung cancer [1] | Inhibitory effect on leukemia [2] | Inhibitory effect on B-cell non-Hodgkin's lymphoma [3] | Stability of crystalline form under high humidity [4] | Stability of crystalline form under high temperature [4] | Inhibition of growth of T-cell lymphoma ([5]; dose 2 mg/kg) | Inhibition of growth of T-cell lymphoma ([5]; dose 4 mg/kg) | Inhibition of growth of T-cell lymphoma ([5]; dose 8 mg/kg) |
| --- | --- | --- | --- | --- | --- | --- | --- | --- | --- | --- | --- | --- | --- | --- | --- | --- | --- | --- |
| – | – | – | – | – | – | – | – | – | – | [N-]=[N+]=N[C@]1(CO)O[C@@H](n2ccc(N)nc2=O)[C@@H](F)[C@@H]1O [compound I, 2′-fluoro-4′-substituted nucleoside analogue I] | significant inhibitory effects | significant inhibitory effects | significant inhibitory effects | – | – | – | – | – |
| good stability | easy to mix evenly with excipients | 0.95 to 1.05 mg | no static electricity | No | – | – | – | – | – | [N-]=[N+]=N[C@]1(CO)O[C@@H](n2ccc(N)nc2=O)[C@@H](F)[C@@H]1O [crystalline form A, 2′-fluoro-4′-substituted nucleoside analogue I] | – | – | – | stable | stable | significantly inhibit | significantly inhibit | significantly inhibit |
| generally stable | – | – | – | – | 80-90% | 0.5 to 1.5 mg | not easy to mix evenly with excipients | Yes | obvious static electricity | [N-]=[N+]=N[C@]1(CO)O[C@@H](n2ccc(N)nc2=O)[C@@H](F)[C@@H]1O [crystalline form B, 2′-fluoro-4′-substituted nucleoside analogue I] | – | – | – | gradually transformed into crystalline form A | gradually transformed into crystalline form A | – | – | – |
